Patent US20040234992A1, “Method of detection of conformational change in a nucleic acid duplex by treatment with oxidising or reactive agent as a result of exposure to environmental or chemical conditions” (priority 2001, published 2004)

Columns and labels:
calf thymus DNA (Z-DNA) = experiment: Permanganate oxidation of calf thymus Z-DNA (NaCl) incubated with intercalators; conditions: for Level of oxidation (induced by chemical) Net A420 nm: Z-DNA (NaCl), Expt minus Control, 2 min-1 h; for Level of oxidation (induced by chemical) Net A420 nm / ΔA420 nm (2 min-1 h) (Expt): 35° C.; for ΔA420 nm (2 min-1 h) (Expt): calf thymus DNA + NaCl + intercalator 6.3 nmol + KMnO4
Protocol: The intercalator (10 μl, […]) was incubated with the solution containing calf thymus DNA (5 μl, 8.27 μg) and NaCl (600 μl, 5M NaCl solution) in water (355 μl) at 40° C. for 1 h. The reaction mixture was treated with KMnO4 (30μ of 10 mM solution) and maintained at 35° C. for 60 min. The absorbance at 420 nm was obtained at 2 min and 60 min by Cary 300 spectrophotometer (Varian Inc.). The level of oxidation was based on the absorbance at A420 nm of the experiment and control (without DNA) experiments as described in the experimental section. Four intercalators (with published data on unwinding degree) were used in the experiment: doxorubicin (10°), daunomycin (12°), 9-aminoacridine (17°) and ethidium bromide (28°); and
Due to limited information about the degree of unwinding of intercalators, only four intercalators with different degree of unwinding were employed in the experiment: doxorubicin (10°), daunorubicin (12°), 9-aminoacridine (17°) and ethidium bromide (28°). The Z-DNA samples were mixed in equal amounts of intercalators and the reactions were carried out under identical conditions. Calf thymus DNA (5 μl, 8.27 μg) was incubated with NaCl (600 μl, SM NaCl solution), the DNA binding agent or intercalator (10 μl, 6.3 nmol) in distilled H2O (355 μl). 4 non-sequence specific intercalators were used in the model study: doxorubicin, daunorubicin, 9-aminoacridine and ethidium bromide. The reaction mixture was gently mixed on shaker at 40° C. for 1 h. After incubation time, KMnO4 (30 μl) was added to the reaction mixture and the resulting mixture was transferred to the quartz cuvette and the absorbance (420 nm) was obtained at 35° C. for 2- and 60-min time-points. The level of oxidation induced by intercalator is based on the net absorbance and calculated as follows:
Net A420 nm=[A420 nm of the Expt (60 min)−A420 nm of the Expt (2 min)]−[A420 nm of the Control (60 min)−A420 nm of the Control (2 min)]
Where Net A420 nm represents the level of oxidation of the DNA-chemical adduct.
The Expt=calf thymus DNA+NaCl+DNA binding agent+KMnO4
The Control=DNA binding agent+KMnO4.
The control experiment (without DNA binding agent) was treated under identical conditions as described above.

duplex DNA = conditions: published data; cited from earlier work

| Compound | Level of oxidation (induced by chemical) Net A420 nm (calf thymus DNA (Z-DNA)) [arbitrary unit] | ΔA420 nm (2 min-1 h) (Expt) (calf thymus DNA (Z-DNA)) | degree of unwinding (duplex DNA) [°] | rate of permanganate oxidation (kinetic data) (calf thymus DNA (Z-DNA); Z-DNA incubated with intercalator, ranking among the four intercalators) |
| --- | --- | --- | --- | --- |
| COc1cccc2c1C(=O)c1c(O)c3c(c(O)c1C2=O)C[C@@](O)(C(C)=O)C[C@@H]3O[C@H]1C[C@H](N)[C@H](O)[C@H](C)O1 [daunorubicin] | 0.0957 | 0.1670 | 12 | – |
| Nc1c2ccccc2nc2ccccc12 [9-aminoacridine] | 0.0726 | 0.1327 | 17 | – |
| COc1cccc2c1C(=O)c1c(O)c3c(c(O)c1C2=O)C[C@@](O)(C(=O)CO)C[C@@H]3O[C@H]1C[C@H](N)[C@H](O)[C@H](C)O1 [doxorubicin] | 0.1029 | 0.1427 | 10 | fastest |
